Measurements published in patent US20040202736A1, “Method of ameliorating side-effects of SERMs” (Pharmaton S.A., priority 2003, published 2004).
Entries after “also recorded” stand apart in the source; their conditions may differ.

Columns and labels:
[1] = tested on: breast cancer survivors women; assay: Clinical practice: 1,600 breast cancer survivors treated with tamoxifen, adverse effects; format: in vivo
Source text: The improvements in recurrence-free survival and in overall survival have been between the ranges reported by the published literature. However, into the total treated group, we have found only one case of endometrial cancer, well differentiated and of small size (table 2).
Many of these women had recently stopped HRT, at the time the diagnosis of breast cancer was made.

[2] = tested on: hot flushes among breast cancer survivors under tamoxifen adjuvant therapy
invasive breast cancer = details: cited from earlier work
[3] = tested on: vasomotor symptoms of patients treated with tamoxifen; assay: Separate uncontrolled experiences to control vasomotor symptoms of patients treated with tamoxifen; format: in vivo, women; details: given to patients treated with tamoxifen
[4] = usual-care n = 46 (six months), intervention n = 90 (end of study), tamoxifen 20 mg/day, BNO 1055 20 mg twice a day
[5] = usual-care n = 46, intervention n = 90

CC/C(=C(\c1ccccc1)c1ccc(OCCN(C)C)cc1)c1ccccc1 [Tamoxifen, Z-2-[4-(1,2-diphenyl-1-butenyl)phenoxy]-N,N-dimethyl-ethylamine]
patients who reported hot flushes ([1]; postmenopausal patients, tamoxifen 20 mg/day): 25% | patients who reported hot flushes ([1]; premenopausal women, mostly severe, tamoxifen 20 mg/day): up to 74% | withdrawal ([1]; tamoxifen 20 mg/day): < 5% | cases of endometrial cancer ([1]; total treated group (1,600), well differentiated and of small size): one | decline of bimonthly reported numbers of hot flushes from baseline ([2]; baseline vs six months of tamoxifen adjuvant therapy, severe or moderate hot flushes, not significant, P=0.71): 5 to 9% | minor adverse events, number ([2]; during the study): seven | serious events ([2]; during the study): No serious events | Hot Flushes Severe, number of patients [2, 4]: 34 | Hot Flushes Severe, proportion of patients [2, 4]: 73.9% | Hot Flushes Moderate, number of patients [2, 5]: 12 | Hot Flushes Moderate, proportion of patients [2, 5]: 26.1% | reduction of the risk of invasive breast cancer (invasive breast cancer; 20 mg/day, 69 months of follow-up): 49% | effect on ER-negative tumors (invasive breast cancer; 20 mg/day): no effect | incidence of adverse events, including endometrial cancer (invasive breast cancer; women younger than 50): no increased incidence

Clc1cccc(Cl)c1N=C1NCCN1 [clonidine]
control of vasomotor symptoms / severe hot flushes [3]: very unsatisfactory results; also recorded: failed to reach a satisfactory control

CC(=O)[C@H]1CC[C@H]2[C@@H]3CCC4=CC(=O)CC[C@]4(C)[C@H]3CC[C@]12C [progesterone]
control of vasomotor symptoms / severe hot flushes [3]: very unsatisfactory results; also recorded: failed to reach a satisfactory control

Vitamin E
control of vasomotor symptoms / severe hot flushes [3]: very unsatisfactory results; also recorded: failed to reach a satisfactory control
